Results from patent US10072017B2, “Compounds and methods for the treatment of cystic fibrosis” (Flatley Discovery Lab, LLC, priority 2015, dated 2018).

Target: T1, CFTR (Homo sapiens, UniProt P13569, DEL508-508)
T1 construct: Primary CF airway epithelial cells were obtained from the UNC Cystic Fibrosis Tissue Procurement and Cell Culture Core; host or cells: primary CF airway epithelial cells
Assay: Equivalent current assay in Primary CF airway epithelial cells (NAUC)
Type: cell-based
Details: 24 h, normalized to VX809 (3 μM) positive control; for Nauc @ 3 μM: 3 μM test compound; for Nauc @ 10 μM: 10 μM test compound
Outline: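 NAUC is the area under the curve from forskolin (10 μM) plus VX770 (1 μM) addition to CFTR-172 (20 μM) block, after benzamil (5 μM). It is corrected for vehicle and scaled to 3 μM VX809 as 1.0 and DMSO as 0.0. Cells were exposed for 24 h to compounds with VX809; medians of ≥4 replicates were fitted sigmoidally.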

T1 sequence (P13569 with tags, fused parts or gaps DEL508-508): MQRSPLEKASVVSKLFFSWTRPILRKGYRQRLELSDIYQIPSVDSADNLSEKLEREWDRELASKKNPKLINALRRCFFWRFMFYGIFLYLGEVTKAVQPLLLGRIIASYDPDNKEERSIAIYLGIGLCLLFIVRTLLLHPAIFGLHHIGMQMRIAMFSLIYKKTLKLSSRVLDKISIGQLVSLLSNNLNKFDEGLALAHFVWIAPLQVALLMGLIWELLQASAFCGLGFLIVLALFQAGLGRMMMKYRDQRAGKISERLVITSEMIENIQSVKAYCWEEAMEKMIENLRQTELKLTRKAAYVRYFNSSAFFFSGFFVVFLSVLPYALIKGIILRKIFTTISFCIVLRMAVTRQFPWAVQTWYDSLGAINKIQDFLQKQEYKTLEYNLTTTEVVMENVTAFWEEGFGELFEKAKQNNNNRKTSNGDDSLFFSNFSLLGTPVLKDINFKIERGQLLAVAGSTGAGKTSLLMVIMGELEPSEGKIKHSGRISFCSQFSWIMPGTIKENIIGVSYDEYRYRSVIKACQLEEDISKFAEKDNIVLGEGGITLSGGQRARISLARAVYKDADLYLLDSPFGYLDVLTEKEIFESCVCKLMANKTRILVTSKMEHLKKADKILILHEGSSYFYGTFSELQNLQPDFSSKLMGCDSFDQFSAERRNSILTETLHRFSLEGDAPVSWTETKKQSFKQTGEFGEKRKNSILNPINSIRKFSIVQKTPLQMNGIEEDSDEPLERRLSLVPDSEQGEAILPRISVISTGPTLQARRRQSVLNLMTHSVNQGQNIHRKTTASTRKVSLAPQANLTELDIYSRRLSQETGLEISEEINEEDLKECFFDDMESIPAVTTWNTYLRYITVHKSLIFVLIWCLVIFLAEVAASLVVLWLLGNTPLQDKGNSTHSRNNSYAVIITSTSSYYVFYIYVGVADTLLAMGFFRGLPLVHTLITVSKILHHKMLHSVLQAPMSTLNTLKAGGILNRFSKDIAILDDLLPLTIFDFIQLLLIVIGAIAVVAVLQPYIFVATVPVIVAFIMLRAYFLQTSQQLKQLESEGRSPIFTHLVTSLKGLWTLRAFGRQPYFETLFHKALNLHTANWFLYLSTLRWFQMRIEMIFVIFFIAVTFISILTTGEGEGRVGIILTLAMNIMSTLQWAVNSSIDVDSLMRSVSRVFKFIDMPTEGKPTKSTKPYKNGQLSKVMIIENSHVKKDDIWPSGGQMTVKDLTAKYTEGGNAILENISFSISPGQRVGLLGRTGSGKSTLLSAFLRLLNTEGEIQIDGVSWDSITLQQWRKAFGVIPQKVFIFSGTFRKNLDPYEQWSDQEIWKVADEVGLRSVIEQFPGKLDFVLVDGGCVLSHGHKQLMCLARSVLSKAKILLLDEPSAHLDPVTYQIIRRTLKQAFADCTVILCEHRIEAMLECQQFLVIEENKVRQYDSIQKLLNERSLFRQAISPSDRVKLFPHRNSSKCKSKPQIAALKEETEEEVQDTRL

CC(C)C1NC2(C(=O)Nc3c(Cl)cc(Cl)cc32)C2C(=O)N(c3cc(Cl)cc(Cl)c3)C(=O)C12 (stereo not shown) [Example 235]
Nauc @ 3 μM: +++ (NAUC “+++” refers to an observed NAUC >170% of positive control)
Nauc @ 10 μM: +++ (NAUC “+++” refers to an observed NAUC >170% of positive control)

O=C1C2C(Cc3ccccc3Cl)NC3(C(=O)Nc4c(Cl)cc(Cl)cc43)C2C(=O)N1c1cc(Cl)cc(Cl)c1 (stereo not shown) [Example 236]
Nauc @ 3 μM: +++ (NAUC “+++” refers to an observed NAUC >170% of positive control)
Nauc @ 10 μM: ++ (NAUC “++” refers to an observed NAUC 170-140% of positive control)

Cc1cc(CC2NC3(C(=O)Nc4c(Cl)cc(Cl)cc43)C3C(=O)N(c4cc(Cl)cc(Cl)c4)C(=O)C23)no1 (stereo not shown) [Example 237]
Nauc @ 3 μM: ++ (NAUC “++” refers to an observed NAUC 170-140% of positive control)
Nauc @ 10 μM: + (NAUC “+” refers to an observed NAUC <140% of positive control)

Cc1cccc(CC2NC3(C(=O)Nc4c(Cl)cc(Cl)cc43)C3C(=O)N(c4cc(Cl)cc(Cl)c4)C(=O)C23)n1 (stereo not shown) [Example 238]
Nauc @ 3 μM: + (NAUC “+” refers to an observed NAUC <140% of positive control)
Nauc @ 10 μM: ++ (NAUC “++” refers to an observed NAUC 170-140% of positive control)

O=C1C2C3C[C@H](O)CN3C3(C(=O)Nc4c(Cl)cc(Cl)cc43)C2C(=O)N1c1cc(Cl)c(OC(F)F)c(Cl)c1 (stereo partly shown) [Example 244]
Nauc @ 3 μM: ++ (NAUC “++” refers to an observed NAUC 170-140% of positive control)
Nauc @ 10 μM: ++ (NAUC “++” refers to an observed NAUC 170-140% of positive control)

COc1c(Cl)cc(N2C(=O)C3C4C[C@H](C(F)(F)F)CN4C4(C(=O)Nc5c(Cl)cc(Cl)cc54)C3C2=O)cc1Cl (stereo partly shown) [Example 245]
Nauc @ 3 μM: +++ (NAUC “+++” refers to an observed NAUC >170% of positive control)
Nauc @ 10 μM: +++ (NAUC “+++” refers to an observed NAUC >170% of positive control)

O=C1C2C(Cc3ccccc3Cl)NC3(C(=O)Nc4c(Cl)cc(Cl)cc43)C2C(=O)N1c1cc(Cl)cc(Cl)c1 (stereo not shown) [Example 246]
Nauc @ 3 μM: +++ (NAUC “+++” refers to an observed NAUC >170% of positive control)
Nauc @ 10 μM: +++ (NAUC “+++” refers to an observed NAUC >170% of positive control)

Cc1nc(CC2NC3(C(=O)Nc4c(Cl)cc(Cl)cc43)C3C(=O)N(c4cc(Cl)cc(Cl)c4)C(=O)C23)cs1 (stereo not shown) [Example 248]
Nauc @ 3 μM: + (NAUC “+” refers to an observed NAUC <140% of positive control)
Nauc @ 10 μM: ++ (NAUC “++” refers to an observed NAUC 170-140% of positive control)

O=C1C2C3CCCN3C3(C(=O)Nc4c(Cl)cc(Cl)cc43)C2C(=O)N1c1cccc(C(F)(F)F)n1 (stereo not shown) [Example 251]
Nauc @ 3 μM: +++ (NAUC “+++” refers to an observed NAUC >170% of positive control)
Nauc @ 10 μM: +++ (NAUC “+++” refers to an observed NAUC >170% of positive control)

Cc1cnc(CC2NC3(C(=O)Nc4c(Cl)cc(Cl)cc43)C3C(=O)N(c4cc(Cl)cc(Cl)c4)C(=O)C23)cn1 (stereo not shown) [Example 252]
Nauc @ 3 μM: ++ (NAUC “++” refers to an observed NAUC 170-140% of positive control)
Nauc @ 10 μM: ++ (NAUC “++” refers to an observed NAUC 170-140% of positive control)

C[C@]1(O)CC2C3C(=O)N(c4cccc(C(F)(F)F)n4)C(=O)C3C3(C(=O)Nc4c(Cl)cc(Cl)cc43)N2C1 (stereo partly shown) [Example 253]
Nauc @ 3 μM: + (NAUC “+” refers to an observed NAUC <140% of positive control)
Nauc @ 10 μM: ++ (NAUC “++” refers to an observed NAUC 170-140% of positive control)
